Experimental data from US11033577B2, “Polymer conjugate of hexa-coordinated platinum complex” (priority 2015, dated 2021).

Legend:
Format in all cases: in vivo, BALB/cA-nu/nu mouse
Conditions in all cases: caudal vein
[1] = system: Human stomach cancer 4-1ST; test: Antitumor Test 3, human stomach cancer 4-1ST transplanted mouse
Excerpt: (§1) Human stomach cancer 4-1ST was subcultured subcutaneously in a BALB/cA-nu/nu mouse (hereinafter, nude mouse). Human stomach cancer 4-1ST was obtained from the Central Institute for Experimental Animals.
(§2) Human stomach cancer 4-1ST was collected subcutaneously from a nude mouse and was cut into blocks each measuring about 3 mm on each side. The tumor blocks thus obtained were transplanted subcutaneously on the dorsal side of nude mice using a trocar. On the 20th day after transplantation, where the average tumor volume had reached about 100 to 200 mm^3, various drugs were administered through the caudal vein. The use and dose (in terms of drug) of the various administered drugs are as follows. In regard to the Example 7 compound, the compound was dissolved in a 5% glucose injectable solution, and the solution was administered once at a dose of 15 mg/kg or 7.5 mg/kg. In regard to the Example 16 compound, the compound was dissolved in a 5% glucose injectable solution, and the solution was administered once at a dose of 30 mg/kg or 15 mg/kg. As a control drug, l-OHP was administered once at a dose of 18 mg/kg or 9 mg/kg, and cisplatin was administered once at a dose of 10 mg/kg. Regarding the amounts of administration of l-OHP and cisplatin and the high amounts of administration of the various Example compounds, the maximum tolerable doses (MTD doses) were employed for all of the compounds. After the administration, the major axis (L) and the minor axis (W) of the tumor were measured over time using calipers, and the tumor volume (L×W×W×0.5) was calculated. The test was performed by employing four animals per group for all of a non-administered group as well as various drug-administered groups. During the period from the initiation of administration to the 21st day after administration, the relative tumor volume (T/C (%)) of each drug-administered group based on the relative tumor volume of a non-drug-administered group as 100 was calculated by the following formula as an index for the antitumor effect. T/C(%)=Relative tumor volume of administered group/relative tumor volume of non-administered group×100 Formula: […]

[2] = system: Human stomach cancer 4-1ST; test: Antitumor Test 2, human stomach cancer 4-1ST transplanted mouse
Excerpt: as §1
as §2, with “the 17th” for “the 20th”, “Example 11” for “Example 7”, “Example 12” for “Example 16”, “18” for “18 mg/kg or 9”

[3] = system: Human stomach cancer 4-1ST; test: Antitumor Test 1, human stomach cancer 4-1ST transplanted mouse
Excerpt: as §1
Human stomach cancer 4-1ST was collected subcutaneously from a nude mouse and was finely cut into blocks each measuring about 3 mm on each side. The tumor blocks thus obtained were subcutaneously transplanted into the dorsal side of nude mice using a trocar. On the 15th day after transplantation, where the average tumor volume had reached about 100 to 200 mm^3, various drugs were administered through the caudal vein. The use and dose (in terms of drug) of the various administered drugs are as follows. In regard to the Example 1 compound, the compound was dissolved in a 5% glucose injectable solution, and the solution was administered once at a dose of 25 mg/kg or 12.5 mg/kg. In regard to the Example 2 compound, the compound was dissolved in a 5% glucose injectable solution, and the solution was administered once at a dose of 25 mg/kg or 12.5 mg/kg. In regard to the Example 3 compound, the compound was dissolved in a 5% glucose injectable solution, and the solution was administered once at a dose of 20 mg/kg or 10 mg/kg. In regard to the Example 4 compound, the compound was dissolved in a 5% glucose injectable solution, and the solution was administered once at a dose of 20 mg/kg or 10 mg/kg. In regard to the Example 5 compound, the compound was dissolved in a 5% glucose injectable solution, and the solution was administered once at a dose of 20 mg/kg or 10 mg/kg. As a control drug, l-OHP was administered once at a dose of 20 mg/kg, and cisplatin was administered once at a dose of 10 mg/kg. Regarding the amounts of administration of l-OHP and cisplatin and the high amounts of administration of the various Example compounds, the maximum tolerable doses (MTD doses) were employed for all of the compounds. After the administration, the major axis (L) and the minor axis (W) of the tumor were measured over time using calipers, and the tumor volume (L×W×W×0.5) was calculated. The test was performed by employing four animals per group for all of a non-administered group as well as various drug-administered groups. During the period from the initiation of administration to the 21st day after administration, the relative tumor volume (T/C (%)) of each drug-administered group based on the relative tumor volume of a non-drug-administered group as 100 was calculated by the following formula as an index for the antitumor effect. T/C(%)=Relative tumor volume of administered group/relative tumor volume of non-administered group×100 Formula: […]

## N.N.[Cl][Pt][Cl] [Cisplatin, cisplatin]
[1]; 10 mg/kg once, day 0
  T/C (%) in various numbers of days after administration: 100%
[1]; 10 mg/kg once, day 4
  T/C (%) in various numbers of days after administration: 47%
[1]; 10 mg/kg once, day 7
  T/C (%) in various numbers of days after administration: 22%
[1]; 10 mg/kg once, day 11
  T/C (%) in various numbers of days after administration: 17%
[1]; 10 mg/kg once, day 14
  T/C (%) in various numbers of days after administration: 16%
[1]; 10 mg/kg once, day 18
  T/C (%) in various numbers of days after administration: 20%
[1]; 10 mg/kg once, day 21
  T/C (%) in various numbers of days after administration: 19%
[2]; 10 mg/kg once, day 0
  T/C (%) in various numbers of days after administration: 100%
[2]; 10 mg/kg once, day 4
  T/C (%) in various numbers of days after administration: 77%
[2]; 10 mg/kg once, day 7
  T/C (%) in various numbers of days after administration: 43%
[2]; 10 mg/kg once, day 11
  T/C (%) in various numbers of days after administration: 32%
[2]; 10 mg/kg once, day 14
  T/C (%) in various numbers of days after administration: 36%
[2]; 10 mg/kg once, day 18
  T/C (%) in various numbers of days after administration: 37%
[2]; 10 mg/kg once, day 21
  T/C (%) in various numbers of days after administration: 42%
[3]; 10 mg/kg once, day 0
  T/C (%) in various numbers of days after administration: 100%
[3]; 10 mg/kg once, day 3
  T/C (%) in various numbers of days after administration: 68%
[3]; 10 mg/kg once, day 5
  T/C (%) in various numbers of days after administration: 50%
[3]; 10 mg/kg once, day 7
  T/C (%) in various numbers of days after administration: 33%
[3]; 10 mg/kg once, day 10
  T/C (%) in various numbers of days after administration: 33%
[3]; 10 mg/kg once, day 14
  T/C (%) in various numbers of days after administration: 29%
[3]; 10 mg/kg once, day 17
  T/C (%) in various numbers of days after administration: 26%
[3]; 10 mg/kg once, day 21
  T/C (%) in various numbers of days after administration: 22%

## O=C1[O][Pt]2([NH][C@@H]3CCCC[C@H]3[NH]2)[O]C1=O [l-OHP, oxaliplatin]
[1]; 9 mg/kg once, day 0
  T/C (%) in various numbers of days after administration: 100%
[1]; 9 mg/kg once, day 4
  T/C (%) in various numbers of days after administration: 81%
[1]; 9 mg/kg once, day 7
  T/C (%) in various numbers of days after administration: 74%
[1]; 9 mg/kg once, day 11
  T/C (%) in various numbers of days after administration: 75%
[1]; 9 mg/kg once, day 14
  T/C (%) in various numbers of days after administration: 79%
[1]; 9 mg/kg once, day 18
  T/C (%) in various numbers of days after administration: 77%
[1]; 9 mg/kg once, day 21
  T/C (%) in various numbers of days after administration: 87%
[1]; 18 mg/kg once, day 0
  T/C (%) in various numbers of days after administration: 100%
[1]; 18 mg/kg once, day 4
  T/C (%) in various numbers of days after administration: 60%
[1]; 18 mg/kg once, day 7
  T/C (%) in various numbers of days after administration: 37%
[1]; 18 mg/kg once, day 11
  T/C (%) in various numbers of days after administration: 36%
[1]; 18 mg/kg once, day 14
  T/C (%) in various numbers of days after administration: 47%
[1]; 18 mg/kg once, day 18
  T/C (%) in various numbers of days after administration: 50%
[1]; 18 mg/kg once, day 21
  T/C (%) in various numbers of days after administration: 52%
[2]; 18 mg/kg once, day 0
  T/C (%) in various numbers of days after administration: 100%
[2]; 18 mg/kg once, day 4
  T/C (%) in various numbers of days after administration: 84%
[2]; 18 mg/kg once, day 7
  T/C (%) in various numbers of days after administration: 52%
[2]; 18 mg/kg once, day 11
  T/C (%) in various numbers of days after administration: 50%
[2]; 18 mg/kg once, day 14
  T/C (%) in various numbers of days after administration: 50%
[2]; 18 mg/kg once, day 18
  T/C (%) in various numbers of days after administration: 60%
[2]; 18 mg/kg once, day 21
  T/C (%) in various numbers of days after administration: 57%
[3]; 20 mg/kg once, day 0
  T/C (%) in various numbers of days after administration: 100%
[3]; 20 mg/kg once, day 3
  T/C (%) in various numbers of days after administration: 72%
[3]; 20 mg/kg once, day 5
  T/C (%) in various numbers of days after administration: 57%
[3]; 20 mg/kg once, day 7
  T/C (%) in various numbers of days after administration: 49%
[3]; 20 mg/kg once, day 10
  T/C (%) in various numbers of days after administration: 49%
[3]; 20 mg/kg once, day 14
  T/C (%) in various numbers of days after administration: 45%
[3]; 20 mg/kg once, day 17
  T/C (%) in various numbers of days after administration: 46%
[3]; 20 mg/kg once, day 21
  T/C (%) in various numbers of days after administration: 41%
